Test systems include K562; SF-539; SW-620; MDA-MB-231; MCF7; HCT-15; RPMI-8226; EKVX; 786-0; NCI-H226; KM12; A549; NCI-H460; HOP-62; CCRF-CEM; LOX IMVI; SK-OV-3; Malme-3M; SK-MEL-28; SN12C.
What all share (experiment): NCI anticancer screen, dose series, 48 h

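Each compound was tested at five concentrations against cells in 96-well plates for 48 hours. GI50 marks 50% less growth.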 Activity calls are given as the source filed them. Rule as the data show it: active = GI50 up to about 1.1 µM and inactive = higher.

Data on ten molecules can be found in ChEMBL document CHEMBL1201862, “PubChem BioAssay data set” (2004).

Consider `COc1ccc(NC(=S)Nc2c(C)n(C)n(-c3ccccc3)c2=O)cc1`, for which the GI50 in the assay on K562 is > 100 µM (inactive); in the assay on SF-539 it was > 100 µM (inactive); with SW-620, > 100 µM (inactive); in the assay on MDA-MB-231, > 100 µM (inactive); in the assay with MCF7, > 100 µM (inactive); in the assay with HCT-15, greater than 100 µM. The GI50 with RPMI-8226, in the assay with EKVX, with 786-0, in the assay with NCI-H226, in the assay on KM12 and with A549 was > 100 µM (inactive) throughout. Besides, the GI50 with NCI-H460, with HOP-62, in the assay on CCRF-CEM, with LOX IMVI, in the assay on SK-OV-3 and in the assay on Malme-3M was > 100 µM (inactive) throughout. Moreover, the GI50 in the assay on SK-MEL-28 was > 100 µM (inactive).

In the case of `Nc1cccc(S(=O)(=O)Nc2nnc(S(N)(=O)=O)s2)c1`, the GI50 is > 100 µM (inactive) in the assay with K562; > 100 µM (inactive) in the assay on SF-539; > 100 µM (inactive) in the assay with SW-620; > 100 µM (inactive) with MDA-MB-231; > 100 µM (inactive) in the assay on MCF7; greater than 100 µM with HCT-15. Also, the GI50 in the assay on RPMI-8226, with EKVX, in the assay with 786-0, with NCI-H226, in the assay with KM12 and in the assay with A549 was > 100 µM (inactive) throughout. Moreover, the GI50 in the assay with NCI-H460, in the assay with HOP-62, with LOX IMVI, in the assay on SK-OV-3, in the assay on Malme-3M and with SK-MEL-28 was > 100 µM (inactive) each time.

`C=C1N(S(=O)(=O)c2ccc(C)cc2)C(=O)OCC12CCCC2`: the GI50 was 94.2 µM (inactive) in the assay with K562; > 100 µM (inactive) in the assay with SF-539; > 100 µM (inactive) with SW-620; > 100 µM (inactive) in the assay with MDA-MB-231; > 100 µM (inactive) in the assay on MCF7; 94 µM with HCT-15. In addition, the GI50 in the assay with RPMI-8226 was > 100 µM (inactive); in the assay with EKVX it was 55 µM (inactive); in the assay with 786-0 it was > 100 µM (inactive); with NCI-H226, > 100 µM (inactive); with KM12, > 100 µM (inactive); in the assay on A549, > 100 µM (inactive). Moreover, the GI50 in the assay with NCI-H460 is 96.4 µM (inactive); in the assay with CCRF-CEM, 65.5 µM (inactive); in the assay with LOX IMVI it was > 100 µM (inactive); in the assay on SK-OV-3 it was 41.4 µM (inactive); in the assay on Malme-3M, > 100 µM (inactive); in the assay with SK-MEL-28, > 100 µM (inactive).

As to `CCOC(=O)c1sc2nc(SC)nc3c2c1NCN3c1ccc2c(c1)OCO2`, the GI50 in the assay with K562 was 35 µM (inactive); in the assay with SF-539, 21.6 µM (inactive); in the assay with SW-620, 17.2 µM (inactive); with MDA-MB-231, 13.4 µM (inactive); with MCF7 it was 16.7 µM (inactive); in the assay on HCT-15 it was 52.5 µM. The GI50 is 24.2 µM (inactive) in the assay with RPMI-8226; 42.2 µM (inactive) in the assay on EKVX; 4.34 µM (inactive) in the assay on 786-0; 25.8 µM (inactive) in the assay with NCI-H226; > 100 µM (inactive) with KM12; 7.83 µM (inactive) with A549. For the same molecule, the GI50 in the assay with HOP-62 was 5.93 µM (inactive); in the assay on CCRF-CEM it was 14.6 µM (inactive); in the assay on LOX IMVI, 23.8 µM (inactive); in the assay with SN12C, 39.4 µM (inactive); in the assay with SK-OV-3, 10.7 µM (inactive); with Malme-3M, 17.9 µM (inactive). In addition, in the assay on SK-MEL-28, the GI50 was 8.04 µM (inactive).

Consider `C[C@@H](C1CC[C@H]2[C@@H]3[C@@H]4O[C@@H]4[C@@]4(O)CC=CC(=O)[C@]4(C)[C@H]3C[C@H](O)[C@]12C)[C@H]1C[C@]2(C)O[C@]2(C)C(=O)O1` (stereo partly drawn), for which the GI50 in the assay on K562 was > 100 µM (inactive); in the assay with SF-539 it was > 100 µM (inactive); in the assay on SW-620, > 100 µM (inactive); with MDA-MB-231, > 100 µM (inactive); with MCF7, > 100 µM (inactive); in the assay on HCT-15 it was greater than 100 µM. In addition, the GI50 with RPMI-8226, in the assay on EKVX, with 786-0, in the assay on NCI-H226, in the assay on KM12 and in the assay with A549 was > 100 µM (inactive) in each case. The GI50 in the assay on NCI-H460 is > 100 µM (inactive); in the assay on CCRF-CEM, 56.6 µM (inactive); in the assay on LOX IMVI, > 100 µM (inactive); in the assay with SN12C it was > 100 µM (inactive); in the assay with SK-OV-3 it was > 100 µM (inactive); in the assay on Malme-3M it was > 100 µM (inactive). The GI50 in the assay with SK-MEL-28 is > 100 µM (inactive).

`OCC1OC(N2CCN(C3OC(CO)C(O)C(O)C3O)CC2)C(O)C(O)C1O` (stereo not drawn): the GI50 in the assay on K562 was > 100 µM (inactive); with SF-539, > 100 µM (inactive); in the assay on SW-620 it was > 100 µM (inactive); in the assay on MDA-MB-231 it was > 100 µM (inactive); in the assay on MCF7, > 100 µM (inactive); in the assay with HCT-15 it was greater than 100 µM. In addition, the GI50 in the assay on RPMI-8226, in the assay on EKVX, with 786-0, with NCI-H226, in the assay on KM12 and in the assay with A549 was > 100 µM (inactive) throughout. Further, the GI50 in the assay with NCI-H460, with HOP-62, in the assay on LOX IMVI, with SN12C, in the assay with SK-OV-3 and with Malme-3M was > 100 µM (inactive) throughout. The GI50 with SK-MEL-28 is > 100 µM (inactive).

Regarding `Cc1[nH]c(=O)nc(NCCNCCO)c1C(=O)Nc1c2ccccc2nc2ccccc12`, the GI50 in the assay with K562 is > 100 µM (inactive); in the assay on SF-539, > 100 µM (inactive); in the assay with SW-620, > 100 µM (inactive); in the assay on MDA-MB-231 it was > 100 µM (inactive); with MCF7, > 100 µM (inactive); in the assay on HCT-15, greater than 100 µM. Besides, the GI50 with RPMI-8226, with EKVX, in the assay on 786-0, in the assay on NCI-H226, in the assay on KM12 and in the assay on A549 was > 100 µM (inactive) throughout. Moreover, the GI50 with HOP-62, with CCRF-CEM, in the assay with LOX IMVI, with SN12C, in the assay with SK-OV-3 and with Malme-3M was > 100 µM (inactive) each time. For the same molecule, in the assay on SK-MEL-28, the GI50 is > 100 µM (inactive).

With `COC(=O)C1=C(O)C(C(=O)OC)[C@]2(O)[C@H](C(=O)OC)[C@H]1C[C@@H](c1ccc(C(F)(F)F)cc1)[C@H]2C(=O)OC` (stereo partly drawn), the GI50 is 2.62 µM (inactive) in the assay on K562; 1.59 µM (inactive) with SF-539; 2.76 µM (inactive) with SW-620; 4.22 µM (inactive) in the assay with MDA-MB-231; 3.5 µM (inactive) with MCF7; 2.82 µM in the assay with HCT-15. For the same molecule, the GI50 was 2.51 µM (inactive) in the assay on RPMI-8226; 10.6 µM (inactive) in the assay with EKVX; 3.44 µM (inactive) in the assay on 786-0; 1.33 µM (inactive) in the assay with NCI-H226; 5.37 µM (inactive) with KM12; 3.74 µM (inactive) with A549. For the same molecule, the GI50 in the assay with NCI-H460 is 3.34 µM (inactive); with HOP-62 it was 6.87 µM (inactive); with LOX IMVI it was 2.45 µM (inactive); in the assay with SN12C, 4.47 µM (inactive); in the assay on SK-OV-3, 6.35 µM (inactive); with Malme-3M, 3.78 µM (inactive). Also, the GI50 in the assay on SK-MEL-28 is 4.89 µM (inactive).

Regarding `Clc1cc2ncn(C3CCCCO3)c2cc1Cl` (stereo not drawn), the GI50 in the assay on K562 was 46.2 µM (inactive); in the assay on SF-539, 96.4 µM (inactive); with SW-620, 53.7 µM (inactive); in the assay on MDA-MB-231, 74.1 µM (inactive); with MCF7, 74 µM (inactive); in the assay on HCT-15 it was 63.2 µM. In addition, the GI50 in the assay with RPMI-8226 is 66.8 µM (inactive); with EKVX, 20 µM (inactive); in the assay on 786-0, 71.6 µM (inactive); in the assay on NCI-H226 it was 17.5 µM (inactive); with KM12 it was 14.2 µM (inactive); in the assay on A549, 47.8 µM (inactive). Besides, the GI50 in the assay on HOP-62 is 69.8 µM (inactive); in the assay on CCRF-CEM it was 56.2 µM (inactive); in the assay with LOX IMVI, 32.5 µM (inactive); in the assay with SN12C, 99.1 µM (inactive); with SK-OV-3 it was > 100 µM (inactive); in the assay on Malme-3M it was > 100 µM (inactive). Besides, the GI50 in the assay on SK-MEL-28 was 39.4 µM (inactive).

As for `Oc1ccccc1/C=N/c1ccc(Oc2ccc(Cl)cc2)c(Cl)c1`, the GI50 with SF-539 was 20.9 µM (inactive); in the assay on SW-620, 28.9 µM (inactive); in the assay on MDA-MB-231, 16.1 µM (inactive); with MCF7, 41.7 µM (inactive); in the assay with HCT-15, 16.3 µM; with RPMI-8226, 21.5 µM (inactive). Besides, the GI50 with EKVX was 21.3 µM (inactive); in the assay on 786-0, 26 µM (inactive); with NCI-H226, 25.2 µM (inactive); with KM12, 23.8 µM (inactive); with A549, 20.6 µM (inactive); in the assay on NCI-H460 it was 18.6 µM (inactive). The GI50 is 15.5 µM (inactive) in the assay with HOP-62; 12.4 µM (inactive) with CCRF-CEM; 15.7 µM (inactive) in the assay on LOX IMVI; 21.8 µM (inactive) with SN12C; 29.8 µM (inactive) with SK-OV-3; 19.5 µM (inactive) in the assay on Malme-3M. The GI50 in the assay on SK-MEL-28 was 25 µM (inactive).
